According to the supplement of paper PMC8671470:
± gives the standard deviation of the averaged measurements.

Tests used:
Settings in all cases: 72 h
NOMO-1 [1] = test system: NOMO-1
Summary of the method: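 Each of fifteen myeloid leukaemia cell lines was seeded in RPMI 1640 at a density titrated to its linear growth range. The cells were incubated for 72 h at 37 °C and 5% CO2 with compounds at five tenfold doses from 1 to 10,000 nM, in duplicate. After ATP luminescence was normalised to vehicle and to a positive control at 10 µM, four-parameter log-logistic curves were fitted. These curves gave the IC50.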

HL-60 [2] = assay: cell viability (% survival relative to DMSO control); higher = less cytotoxic
Summary of the method: (§1)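 Four-parameter log-logistic fits in drc and PharmacoGx supplied area under the curve where it is given. Underlying viability came from CellTiter-Glo, normalised to DMSO and proteasome-inhibitor wells, with the proteasome inhibitor at 10 μM. HL-60 cells in RPMI 1640 plus 10% FBS had been rescreened against the full library at five tenfold concentrations of 1–10,000 nM, in duplicate on 384-well plates, with DMSO or 100 nM of one of three metabolic inhibitors, for 72 h at 37 °C, 5% CO2.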

BV-173 = assay: cell viability (% survival relative to DMSO control, bortezomib = 0%); higher = less cytotoxic
Summary of the method: (§2)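 Seeding density for each of the 10 AML and 5 CML cell lines was titrated to the linear growth range. Cells went into 384-well plates pre-printed in duplicate with compounds at 1, 10, 100, 1000 or 10000 nM and were held for 72 h at 37 °C with 5% CO2. CellTiter-Glo luminescence then provided the readout. Percent survival is expressed relative to vehicle at 100% and a 10 µM positive control at 0%, averaged over duplicates.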

HEL = assay: as above
Summary of the method: as §2

HL-60 [3] = assay: as above
Summary of the method: as §2

K-562 = assay: as above
Summary of the method: as §2

KCL-22 = assay: as above
Summary of the method: as §2

KG-1 = assay: as above
Summary of the method: as §2

KU-812 = assay: as above
Summary of the method: as §2

LAMA-84 = assay: as above
Summary of the method: as §2

ML-2 = assay: as above
Summary of the method: as §2

MOLM-13 = assay: as above
Summary of the method: as §2

MV4-11 = assay: as above
Summary of the method: as §2

Mono-Mac-6 = assay: as above
Summary of the method: as §2

NOMO-1 [4] = assay: as above
Summary of the method: as §2

SHI-1 = assay: as above
Summary of the method: as §2

THP-1 = assay: as above
Summary of the method: as §2

HL-60 [5] = assay: area under dose-response curve (viability, 1 nM-10 uM) (fraction (0-1)); higher = more sensitive
Summary of the method: as §1

**Q.** `CCC(CC#N)OC(=O)N[C@@H](C)c1cccc(NC(=O)Nc2ccc(-c3cnco3)c(OC)c2)c1` (stereo in doubt) [AVN-944] was tested. Which “IC50 (cell viability)” value (NOMO-1 [1]) did it give?
**A.** 451 nM

**Q.** And the cell viability (HL-60 [2]; 0.001 µM, co-treatment: AZD3965 100 nM)?
**A.** 96.6 ± 3.6%

**Q.** And the cell viability (HL-60 [2]; 0.001 µM, co-treatment: DMSO vehicle)?
**A.** 99.36 ± 0.12%

**Q.** What about the cell viability (HL-60 [2]; 0.001 µM, co-treatment: GSK2194069 100 nM) of the same compound?
**A.** 99.2 ± 2%

**Q.** What about the cell viability (HL-60 [2]; 0.001 µM, co-treatment: pictilisib 100 nM) of the same compound?
**A.** 102.95 ± 0.023%

**Q.** And the cell viability (HL-60 [2]; 0.01 µM, co-treatment: AZD3965 100 nM)?
**A.** 102 ± 13%

**Q.** And the cell viability (HL-60 [2]; 0.01 µM, co-treatment: DMSO vehicle)?
**A.** 97.01 ± 0.85%

**Q.** What about the cell viability (HL-60 [2]; 0.01 µM, co-treatment: GSK2194069 100 nM) of the same compound?
**A.** 105 ± 7.9%

**Q.** What about the cell viability (HL-60 [2]; 0.01 µM, co-treatment: pictilisib 100 nM) of the same compound?
**A.** 98.5 ± 2.3%

**Q.** What about the cell viability (HL-60 [2]; 0.1 µM, co-treatment: AZD3965 100 nM) of the same compound?
**A.** 102 ± 2.8%

**Q.** And the cell viability (HL-60 [2]; 0.1 µM, co-treatment: DMSO vehicle)?
**A.** 103 ± 1.3%

**Q.** What about the cell viability (HL-60 [2]; 0.1 µM, co-treatment: GSK2194069 100 nM) of the same compound?
**A.** 100 ± 5.2%

**Q.** And the cell viability (HL-60 [2]; 0.1 µM, co-treatment: pictilisib 100 nM)?
**A.** 93.8 ± 8.5%

**Q.** And the cell viability (HL-60 [2]; 1 µM, co-treatment: AZD3965 100 nM)?
**A.** 35.4 ± 4.8%

**Q.** And the cell viability (HL-60 [2]; 1 µM, co-treatment: DMSO vehicle)?
**A.** 50 ± 5.5%

**Q.** What about the cell viability (HL-60 [2]; 1 µM, co-treatment: GSK2194069 100 nM) of the same compound?
**A.** 53 ± 4.7%

**Q.** And the cell viability (HL-60 [2]; 1 µM, co-treatment: pictilisib 100 nM)?
**A.** 48.9 ± 4.2%

**Q.** And the cell viability (HL-60 [2]; 10 µM, co-treatment: AZD3965 100 nM)?
**A.** 8.09 ± 1.1%

**Q.** And the cell viability (HL-60 [2]; 10 µM, co-treatment: DMSO vehicle)?
**A.** 12.9 ± 2.1%

**Q.** What about the cell viability (HL-60 [2]; 10 µM, co-treatment: GSK2194069 100 nM) of the same compound?
**A.** 12.3 ± 0.38%

**Q.** What about the cell viability (HL-60 [2]; 10 µM, co-treatment: pictilisib 100 nM) of the same compound?
**A.** 9.49 ± 0.48%

**Q.** What about the cell viability (BV-173; 1 nM) of the same compound?
**A.** 93.8%

**Q.** What about the cell viability (BV-173; 10 nM) of the same compound?
**A.** 80.7%

**Q.** What about the cell viability (BV-173; 100 nM) of the same compound?
**A.** 50.8%

**Q.** And the cell viability (BV-173; 1000 nM)?
**A.** -0.621%

**Q.** What about the cell viability (BV-173; 10000 nM) of the same compound?
**A.** -0.6%

**Q.** What about the cell viability (HEL; 1 nM) of the same compound?
**A.** 101%

**Q.** What about the cell viability (HEL; 10 nM) of the same compound?
**A.** 119%

**Q.** And the cell viability (HEL; 100 nM)?
**A.** 70%

**Q.** What about the cell viability (HEL; 1000 nM) of the same compound?
**A.** 4.65%

**Q.** What about the cell viability (HEL; 10000 nM) of the same compound?
**A.** 2.7%

**Q.** What about the cell viability (HL-60 [3]; 1 nM) of the same compound?
**A.** 94.9%

**Q.** What about the cell viability (HL-60 [3]; 10 nM) of the same compound?
**A.** 85.7%

**Q.** What about the cell viability (HL-60 [3]; 100 nM) of the same compound?
**A.** 61.6%

**Q.** What about the cell viability (HL-60 [3]; 1000 nM) of the same compound?
**A.** 12.6%

**Q.** What about the cell viability (HL-60 [3]; 10000 nM) of the same compound?
**A.** 1.98%

**Q.** What about the cell viability (K-562; 1 nM) of the same compound?
**A.** 103%

**Q.** What about the cell viability (K-562; 10 nM) of the same compound?
**A.** 96.9%

**Q.** And the cell viability (K-562; 100 nM)?
**A.** 30.3%

**Q.** And the cell viability (K-562; 1000 nM)?
**A.** 10.1%

**Q.** And the cell viability (K-562; 10000 nM)?
**A.** 5.46%

**Q.** What about the cell viability (KCL-22; 1 nM) of the same compound?
**A.** 94.6%

**Q.** What about the cell viability (KCL-22; 10 nM) of the same compound?
**A.** 114%

**Q.** What about the cell viability (KCL-22; 100 nM) of the same compound?
**A.** 32.7%

**Q.** And the cell viability (KCL-22; 1000 nM)?
**A.** 11.6%

**Q.** And the cell viability (KCL-22; 10000 nM)?
**A.** 7.56%

**Q.** And the cell viability (KG-1; 1 nM)?
**A.** 108%

**Q.** And the cell viability (KG-1; 10 nM)?
**A.** 99.4%

**Q.** What about the cell viability (KG-1; 100 nM) of the same compound?
**A.** 74.1%

**Q.** And the cell viability (KG-1; 1000 nM)?
**A.** 27%

**Q.** And the cell viability (KG-1; 10000 nM)?
**A.** 20.2%

**Q.** And the cell viability (KU-812; 1 nM)?
**A.** 93.6%

**Q.** And the cell viability (KU-812; 10 nM)?
**A.** 106%

**Q.** And the cell viability (KU-812; 100 nM)?
**A.** 50.2%

**Q.** And the cell viability (KU-812; 1000 nM)?
**A.** 9.58%

**Q.** What about the cell viability (KU-812; 10000 nM) of the same compound?
**A.** 3.66%

**Q.** And the cell viability (LAMA-84; 1 nM)?
**A.** 92.5%

**Q.** And the cell viability (LAMA-84; 10 nM)?
**A.** 102%

**Q.** What about the cell viability (LAMA-84; 100 nM) of the same compound?
**A.** 43.9%

**Q.** And the cell viability (LAMA-84; 1000 nM)?
**A.** 19%

**Q.** And the cell viability (LAMA-84; 10000 nM)?
**A.** 12.5%

**Q.** And the cell viability (ML-2; 1 nM)?
**A.** 99.6%

**Q.** What about the cell viability (ML-2; 10 nM) of the same compound?
**A.** 111%

**Q.** What about the cell viability (ML-2; 100 nM) of the same compound?
**A.** 29.5%

**Q.** And the cell viability (ML-2; 1000 nM)?
**A.** 1.17%

**Q.** What about the cell viability (ML-2; 10000 nM) of the same compound?
**A.** -0.0869%

**Q.** What about the cell viability (MOLM-13; 1 nM) of the same compound?
**A.** 130%

**Q.** And the cell viability (MOLM-13; 10 nM)?
**A.** 121%

**Q.** What about the cell viability (MOLM-13; 100 nM) of the same compound?
**A.** 8.35%

**Q.** And the cell viability (MOLM-13; 1000 nM)?
**A.** 1.17%

**Q.** What about the cell viability (MOLM-13; 10000 nM) of the same compound?
**A.** 0.252%

**Q.** And the cell viability (MV4-11; 1 nM)?
**A.** 92.1%

**Q.** And the cell viability (MV4-11; 10 nM)?
**A.** 96.4%

**Q.** What about the cell viability (MV4-11; 100 nM) of the same compound?
**A.** 35.8%

**Q.** And the cell viability (MV4-11; 1000 nM)?
**A.** -0.602%

**Q.** And the cell viability (MV4-11; 10000 nM)?
**A.** -0.425%

**Q.** What about the cell viability (Mono-Mac-6; 1 nM) of the same compound?
**A.** 90.2%

**Q.** What about the cell viability (Mono-Mac-6; 10 nM) of the same compound?
**A.** 90.5%

**Q.** And the cell viability (Mono-Mac-6; 100 nM)?
**A.** 60.2%

**Q.** And the cell viability (Mono-Mac-6; 1000 nM)?
**A.** 16.4%

**Q.** What about the cell viability (Mono-Mac-6; 10000 nM) of the same compound?
**A.** 8.67%

**Q.** What about the cell viability (NOMO-1 [4]; 1 nM) of the same compound?
**A.** 99.9%

**Q.** And the cell viability (NOMO-1 [4]; 10 nM)?
**A.** 101%

**Q.** And the cell viability (NOMO-1 [4]; 100 nM)?
**A.** 86.5%

**Q.** And the cell viability (NOMO-1 [4]; 1000 nM)?
**A.** 34%

**Q.** What about the cell viability (NOMO-1 [4]; 10000 nM) of the same compound?
**A.** 10.4%

**Q.** What about the cell viability (SHI-1; 1 nM) of the same compound?
**A.** 104%

**Q.** What about the cell viability (SHI-1; 10 nM) of the same compound?
**A.** 107%

**Q.** What about the cell viability (SHI-1; 100 nM) of the same compound?
**A.** 68.2%

**Q.** And the cell viability (SHI-1; 1000 nM)?
**A.** 12.4%

**Q.** What about the cell viability (SHI-1; 10000 nM) of the same compound?
**A.** 8.7%

**Q.** And the cell viability (THP-1; 1 nM)?
**A.** 101%

**Q.** What about the cell viability (THP-1; 10 nM) of the same compound?
**A.** 99.7%

**Q.** And the cell viability (THP-1; 100 nM)?
**A.** 101%

**Q.** And the cell viability (THP-1; 1000 nM)?
**A.** 65.3%

**Q.** And the cell viability (THP-1; 10000 nM)?
**A.** 43.1%

**Q.** What about the “area under dose-response curve” value (HL-60 [5]; co-treatment: AZD3965 100 nM) of the same compound?
**A.** 0.273

**Q.** And the “area under dose-response curve” value (HL-60 [5]; co-treatment: DMSO vehicle)?
**A.** 0.233

**Q.** What about the “area under dose-response curve” value (HL-60 [5]; co-treatment: GSK2194069 100 nM) of the same compound?
**A.** 0.227

**Q.** What about the “area under dose-response curve” value (HL-60 [5]; co-treatment: pictilisib 100 nM) of the same compound?
**A.** 0.255
